From US20200360332A1, “COMPOUND FOR USE IN THE INCREASING OF MENTAL CAPACITY” (LEIBNIZ-INSTITUT FUER NEUROBIOLOGIE (LIN) STIFTUNG DES …, priority 2017, published 2020)

Columns and labels:
[1] = system: Drosophila melanogaster larvae; assay: Learning experiment E (scent/fructose reward) with Drosophila melanogaster larvae raised on feed mash containing the compound; type: in vivo; settings: for learning and memory capability P vs control K (Example 2): 7.1×10^−7 M (700 nM) final concentration in feed mash; for improvement in learning capability compared with FSE-20 (summary statement): Drosophila larvae, effect of FSE-20>FSE-16>>FSE-8
Description: Depicted in FIG. 1A is an overview of a learning experiment E with Drosophila melanogaster larvae. […] One group represents the control group K, which was raised with standard feed mash, and the three other groups were each raised with different concentrations of FSE-20 (7.1×10^−8, 7.1×10^−7, and 7.1×10^−6[M] FSE-20) in the feed mash. After 5 days (arrow with “5d”), the learning experiment E was carried out. In the learning experiment E, the animals were each subjected to one of two inverse training regimens A and then subjected to a test B. The first group I was presented in training A with a first scent with the feed reward (fructose), while a second scent was presented alone (first scent+/second scent). In FIG. 1A, the first scent is depicted as a white square and the second scent as a black square. […] The second group II was trained inversely (first scent/second scent+). In test B of the learning experiment E, it was subsequently examined whether the larvae of the two groups I, II prefer the first scent or the second scent in a selection situation and thus their learning and memory capability (performance index) P was determined. Shown in FIG. 2A is an overview with the compounds used in this example as additions to the feed mash. One group of the Drosophila melanogaster larvae was the control group K, which was raised with standard feed mash. Furthermore, one group was raised with FSE-20 in a concentration of 7.1×10^−7 M in the feed mash. The other groups were raised with a concentration of 7.1×10^−7 M of the different FSE-20 derivatives in the feed mash. These FSE-20 derivatives comprise FSE-8, FSE-12, FSE-16, 4OH-ZSE-20, and DH-FSE-20. After five days (arrow with “5d”), the Drosophila melanogaster larvae were tested in the learning experiment E, as described in Example 1.

[2] = system: older Drosophila melanogaster flies; assay: Learning experiment E with mature, older Drosophila melanogaster flies fed FSE-20; type: in vivo
Description: In this experiment, the flies were divided into two groups, a control group K, which was fed with standard feed, and a test group, for which FSE-20 was added to the feed. The concentration of FSE-20in the feed was 7.1×10^−7 M. The flies were tested in a learning experiment E, corresponding to the principle of Example 1, 15 days (arrow with “15d”) after the adult animals had hatched.

mice = assay: Learning experiment E in mice (conditioned fear, freezing) after intraperitoneal injection; type: in vivo; settings: 6 mg/kg i.p. prior to training
Description: In order to determine the effect of FSE-20 on the learning and memory capability P in 3- to 4-month-old mice, the animals underwent intraperitoneal injection with an FSE-20 solution (6 mg/kg body weight) prior to the training A. In the learning experiment E on the next day, the animals were placed in a specific environment during the training A, while the mice were subjected at the same time to an aversive electrical stimulus (lightning symbol). Subsequently, in the first test B-1 one day later (1 d), the nonspecific fear reaction (freezing) F was measured in a neutral environment, that is, in an environment that was new for the animals. In the second test B-2, two hours (2 h) after the first test B-1, the fear reaction in the environment was measured, in that the animals were presented with the electrical stimulus during the training A (conditioned environment).
Shown in FIG. 4B is a graphic illustration that summarizes the results of the learning experiment E on mice. […] The first span of time of the second test comprises the 1st-5th minute and the second span of time comprises the 6th-10th minute. The result of the first span of time is represented as black bars and the result of the second span of time is represented as white bars with black longitudinal stripes.

[3] = system: hippocampal CA1 mouse cells; assay: Ex vivo patch-clamp electrophysiological recordings on hippocampal CA1 pyramidal cells; type: cell-based, mice; settings: for number of action potentials vs control K: current intensities of 40 to 440 pA
Description: The patch-clamp method was carried out on whole CA1 pyramidal cells from “acute” (freshly prepared) hippocampus slices of four-to-six-week-old male mice in order to measure the effects of FSE-20 on neuronal excitability.
Shown are the action potentials of the control K as well as those of the cells treated with FSE-20.
Depicted in FIG. 5B is a graphic illustration in which the number of action potentials is shown in relation to the injected current intensity (pA) of the differently treated cells and of the control group K.

CCCCCCCCCCCCOC(=O)/C=C/c1ccc(O)c(OC)c1 [FSE-12, dodecyl (2E)-3-(4-hydroxy-3-methoxyphenyl)prop-2-enoate]
learning and memory capability P vs control K (Example 2) ([1]; larvae, 5 days): slight increase

CCCCCCCCOC(=O)/C=C/c1ccc(O)c(OC)c1 [FSE-8, octyl (2E)-3-(4-hydroxy-3-methoxyphenyl)prop-2-enoate]
improvement in learning capability compared with FSE-20 (summary statement) [1]: less pronounced | learning and memory capability P vs control K (Example 2) ([1]; larvae, 5 days): increases the learning and memory capability P

CCCCCCCCCCCCCCCCCCCCOC(=O)CCc1ccc(O)c(OC)c1 [DH-FSE-20, icosyl 3-(4-hydroxy-3-methoxyphenyl)propanoate]
improvement in learning capability compared with FSE-20 (summary statement) [1]: less pronounced | learning and memory capability P vs control K (Example 2) ([1]; larvae, 5 days): increases learning and memory

CCCCCCCCCCCCCCCCOC(=O)/C=C/c1ccc(O)c(OC)c1 [FSE-16, hexadecyl (2E)-3-(4-hydroxy-3-methoxyphenyl)prop-2-enoate]
improvement in learning capability compared with FSE-20 (summary statement) [1]: less pronounced | learning and memory capability P vs control K (Example 2) ([1]; larvae, 5 days): increases learning

CCCCCCCCCCCCCCCCCCCCOC(=O)/C=C/c1ccc(O)cc1 [4OH-ZSE-20, icosyl (2E)-3-(4-hydroxyphenyl)prop-2-enoate]
improvement in learning capability compared with FSE-20 (summary statement) [1]: weaker, but still marked activity | learning and memory capability P vs control K (Example 2) ([1]; larvae, 5 days): slight increase

CCCCCCCCCCCCCCCCCCCCOC(=O)/C=C/c1ccc(O)c(OC)c1 [FSE-20, icosyl (2E)-3-(4-hydroxy-3-methoxyphenyl)prop-2-enoate]
learning and memory capability of larvae (summary statement) ([1]; added to feed of larvae): significantly in a dose-dependent manner | concentration at which an effect is seen ([1]; in feed mash): 700 nM | improvement of learning and memory capability P ([1]; larvae, 700 nM in feed mash, 5 days): approximately 50% | learning and memory capability P vs control K (Example 2) ([1]; larvae, 5 days): marked increase | learning and memory capability P (performance index) vs control K ([1]; larvae, 7.1×10^−8, 7.1×10^−7 or 7.1×10^−6 M in feed mash, 5 days): increased | learning and memory capability P ([1]; larvae, very high concentrations starting at 7 μM in feed mash, 5 days): declines once again | learning and memory capability P ([1]; larvae, very low concentration, 70 nM in feed mash, 5 days): increase in learning tendency | improvement of learning and memory capability P in older animals ([2]; 7.1×10^−7 M in feed, tested 15 days after hatching): approximately 50% | learning capability of older flies (summary statement) ([2]; FSE-20 in feed): doubled | fear behavior (freezing) F in second half (6th-10th minute) compared with first half (1st-5th minute) (mice; mice 3-4 months, second test B-2, conditioned environment): just as strongly pronounced | memory stability vs control (mice; mice): more stable memory over time | number of action potentials vs control K ([3]; 1 μM): increased significantly | number of action potentials vs control K ([3]; 4 μM): increased significantly | excitability of pyramidal CA1 hippocampus cells ([3]; ex vivo, summary statement): increases in a dose-dependent manner
